Some test systems named below: UACC-62; 786-0; DU-145; HCT-116; CCRF-CEM; CAKI-1; SF-539; SR; BT-549; HCT-15; IGROV-1; RPMI-8226; K562; RXF 393; LOX IMVI; U-251; MOLT-4; OVCAR-4; Malme-3M; NCI-H23.
Common to all, as to assay: growth of human tumour cells (NCI), 48 h

These results are taken from ChEMBL document CHEMBL1201862, “PubChem BioAssay data set” (2004).

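Following 48 hours of exposure in 96-well plates, responses at five concentrations were used to interpolate endpoints linearly. GI50 = concentration required for 50% inhibition of growth.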 Active and inactive are the calls of the source. Rule as the data show it: active = GI50 up to about 1.1 µM and inactive = higher.

Turning to `COc1cc(/C=C2\N=C(c3ccccc3)N(/N=C/c3cc4cc(C)ccc4nc3Cl)C2=O)ccc1O`, the GI50 in the experiment on UACC-62 was 37.7 µM (inactive); with 786-0 it was 37.6 µM (inactive); in the experiment with DU-145, 65.6 µM (inactive); in the experiment on HCT-116 it was 20.4 µM (inactive); with CCRF-CEM, 16.2 µM (inactive); in the experiment with CAKI-1 it was 78 µM (inactive). The GI50 with SF-539 was 35.2 µM (inactive); in the experiment with SR it was 18.9 µM (inactive); in the experiment on BT-549 it was 63.8 µM (inactive); in the experiment on HCT-15, 40.1 µM; in the experiment on IGROV-1, 30.1 µM (inactive); in the experiment on RPMI-8226, 31.6 µM (inactive). For the same molecule, the GI50 is 45.8 µM (inactive) in the experiment on K562; 34 µM (inactive) in the experiment with RXF 393; 37 µM (inactive) in the experiment with LOX IMVI; 35.7 µM (inactive) in the experiment with U-251; 23.4 µM (inactive) in the experiment on MOLT-4; 43.8 µM (inactive) in the experiment on OVCAR-4.
With `O=C1/C(=C/c2cccc(Br)c2)Cc2ccccc21`, the GI50 in the experiment with Malme-3M is > 100 µM (inactive); in the experiment with UACC-62, 54.3 µM (inactive); with NCI-H23, 25.9 µM (inactive); in the experiment with 786-0, > 100 µM (inactive); in the experiment on DU-145, 53.8 µM (inactive); with HCT-116 it was 27.6 µM (inactive). For the same molecule, the GI50 in the experiment with CCRF-CEM was 58.7 µM (inactive); in the experiment with CAKI-1 it was 75.7 µM (inactive); in the experiment on SF-539, 41.8 µM (inactive); in the experiment with SR it was 24.5 µM (inactive); in the experiment with BT-549 it was 34.5 µM (inactive); with HCT-15 it was 49.4 µM. Also, the GI50 is 16.8 µM (inactive) in the experiment on IGROV-1; 32.8 µM (inactive) with RPMI-8226; 58.9 µM (inactive) in the experiment with K562; 45.1 µM (inactive) in the experiment on LOX IMVI; > 100 µM (inactive) in the experiment with U-251; 62.7 µM (inactive) in the experiment on MOLT-4. Besides, the GI50 with OVCAR-4 was 38.9 µM (inactive).
For `CC(OC(=O)NCn1cc(-c2ccccc2)nn1)c1ccccc1` (stereo not drawn), the GI50 is 30.3 µM (inactive) with Malme-3M; 27.1 µM (inactive) in the experiment on NCI-H23; 88.7 µM (inactive) in the experiment on 786-0; 42.1 µM (inactive) in the experiment with DU-145; 27.9 µM (inactive) with HCT-116; 31.6 µM (inactive) in the experiment with CCRF-CEM. The GI50 in the experiment with CAKI-1 was > 100 µM (inactive); in the experiment on SF-539, 38.9 µM (inactive); in the experiment on SR, 30.2 µM (inactive); in the experiment on BT-549, 32.4 µM (inactive); with HCT-15 it was 50.6 µM; with IGROV-1 it was 35.4 µM (inactive). Also, the GI50 in the experiment with RPMI-8226 is 30.2 µM (inactive); with K562, 31.2 µM (inactive); in the experiment on LOX IMVI, 75 µM (inactive); with U-251, 45.7 µM (inactive); in the experiment on MOLT-4 it was 20.8 µM (inactive); in the experiment on OVCAR-4, > 10 µM (inactive).
On to `COc1ccc(C2CC(=O)CC(c3ccc(OC)cc3)C23C(=O)NC(=S)NC3=O)cc1` (stereo not drawn), for which the GI50 in the experiment on UACC-62, with NCI-H23, in the experiment on 786-0, with DU-145, with HCT-116 and in the experiment on CCRF-CEM was > 100 µM (inactive) in each case. The GI50 with CAKI-1 is > 100 µM (inactive); with SF-539, > 100 µM (inactive); in the experiment on SR it was > 100 µM (inactive); with BT-549 it was > 100 µM (inactive); with HCT-15, greater than 100 µM; in the experiment with IGROV-1, > 100 µM (inactive). Also, the GI50 with RPMI-8226 was > 10 µM (inactive); in the experiment with K562 it was > 100 µM (inactive); in the experiment with RXF 393, > 100 µM (inactive); in the experiment with LOX IMVI, > 100 µM (inactive); in the experiment with U-251 it was > 100 µM (inactive); in the experiment on MOLT-4 it was > 100 µM (inactive). The GI50 in the experiment with OVCAR-4 was > 100 µM (inactive).
`O=C1COc2cccnc2N1CCCCO`: the GI50 with UACC-62, with 786-0, in the experiment on DU-145, in the experiment on HCT-116, in the experiment on CCRF-CEM and in the experiment on CAKI-1 was > 100 µM (inactive) throughout. Besides, the GI50 in the experiment with SF-539 is > 100 µM (inactive); in the experiment with SR, > 100 µM (inactive); in the experiment on BT-549 it was > 100 µM (inactive); with HCT-15 it was greater than 100 µM; in the experiment on IGROV-1, > 100 µM (inactive); in the experiment on RPMI-8226 it was > 100 µM (inactive). For the same molecule, the GI50 in the experiment with RXF 393, in the experiment with LOX IMVI, with U-251 and in the experiment on MOLT-4 was > 100 µM (inactive) throughout.
For the molecule `C#CCOCCCC(=O)O`, the GI50 with UACC-62, in the experiment on NCI-H23, in the experiment on 786-0, with DU-145, with HCT-116 and in the experiment with CCRF-CEM was > 100 µM (inactive) throughout. Moreover, the GI50 in the experiment with CAKI-1 is > 100 µM (inactive); in the experiment on SF-539, > 100 µM (inactive); in the experiment on SR, > 100 µM (inactive); in the experiment with BT-549 it was > 100 µM (inactive); in the experiment on HCT-15, greater than 100 µM; in the experiment on IGROV-1, > 100 µM (inactive). In addition, the GI50 in the experiment with RPMI-8226, in the experiment on K562, in the experiment on RXF 393, with LOX IMVI, in the experiment with U-251 and with MOLT-4 was > 100 µM (inactive) in each case. The GI50 in the experiment with OVCAR-4 is > 100 µM (inactive).
Turning to `CC(=O)OCC1OC(Sc2nc(-c3ccccc3)c(C#N)c(=O)n2C2OC(COC(C)=O)C(OC(C)=O)C(OC(C)=O)C2OC(C)=O)C(OC(C)=O)C(OC(C)=O)C1OC(C)=O` (stereo not drawn), the GI50 with UACC-62, in the experiment on NCI-H23, in the experiment on 786-0, in the experiment with DU-145, in the experiment on HCT-116 and with CAKI-1 was > 100 µM (inactive) each time. For the same molecule, the GI50 in the experiment on SF-539 is > 100 µM (inactive); in the experiment on SR, > 100 µM (inactive); with BT-549 it was > 100 µM (inactive); with HCT-15, greater than 100 µM; in the experiment with IGROV-1 it was > 100 µM (inactive); in the experiment on RPMI-8226 it was > 100 µM (inactive). Moreover, the GI50 with K562 is 32.2 µM (inactive); with RXF 393 it was > 100 µM (inactive); in the experiment on LOX IMVI, > 100 µM (inactive); with U-251, > 100 µM (inactive); in the experiment with MOLT-4, > 100 µM (inactive).
For `CC(=O)c1c(CO[N+](=O)[O-])[n+]([O-])c2ccccc2[n+]1[O-]`, the GI50 with Malme-3M was 53.7 µM (inactive); in the experiment with UACC-62, 35.7 µM (inactive); in the experiment on NCI-H23, 45.5 µM (inactive); with 786-0 it was > 100 µM (inactive); with DU-145 it was > 100 µM (inactive); in the experiment on HCT-116 it was 47.4 µM (inactive). The GI50 with CCRF-CEM was 37.9 µM (inactive); in the experiment with CAKI-1 it was > 100 µM (inactive); in the experiment with SF-539, > 100 µM (inactive); in the experiment with SR, 43.9 µM (inactive); in the experiment with BT-549, > 100 µM (inactive); in the experiment on HCT-15, 30.8 µM. In addition, the GI50 in the experiment on IGROV-1 was 41.5 µM (inactive); in the experiment on RPMI-8226 it was 56.6 µM (inactive); with K562, > 100 µM (inactive); in the experiment on LOX IMVI, 58.5 µM (inactive); in the experiment with U-251, 33.8 µM (inactive); in the experiment with MOLT-4 it was 78.3 µM (inactive). Moreover, the GI50 in the experiment with OVCAR-4 was > 100 µM (inactive).
Take `COc1ccccc1N1C(=O)CSC1c1cccc(Oc2ccccc2)c1` (stereo not drawn): the GI50 in the experiment on Malme-3M is 16.3 µM (inactive); in the experiment on UACC-62, 14.9 µM (inactive); in the experiment with NCI-H23, 20.8 µM (inactive); with 786-0, 17.7 µM (inactive); in the experiment on DU-145 it was 18.7 µM (inactive); in the experiment with HCT-116, 17.6 µM (inactive). For the same molecule, the GI50 in the experiment with CCRF-CEM is 26.1 µM (inactive); in the experiment on CAKI-1 it was 23.8 µM (inactive); in the experiment on SF-539, 17.2 µM (inactive); in the experiment on SR, 24.8 µM (inactive); in the experiment on BT-549, 17.1 µM (inactive); in the experiment on HCT-15, 17.2 µM. The GI50 is 32.8 µM (inactive) in the experiment on K562; 17.8 µM (inactive) in the experiment on RXF 393; 17.1 µM (inactive) with LOX IMVI; 17 µM (inactive) with U-251; 29.9 µM (inactive) in the experiment on MOLT-4; 18.5 µM (inactive) in the experiment with OVCAR-4.
As to `CCSCCC(N)C(=O)O` (stereo not drawn), the GI50 with Malme-3M, with UACC-62, in the experiment on NCI-H23, in the experiment with 786-0, with DU-145 and with HCT-116 was > 100 µM (inactive) throughout. In addition, the GI50 is > 100 µM (inactive) with SF-539; > 100 µM (inactive) in the experiment with SR; > 100 µM (inactive) in the experiment with BT-549; greater than 100 µM with HCT-15; > 100 µM (inactive) in the experiment with IGROV-1; > 100 µM (inactive) with RPMI-8226. Besides, the GI50 in the experiment with K562, in the experiment with RXF 393, in the experiment on LOX IMVI, in the experiment on U-251, in the experiment on MOLT-4 and in the experiment on OVCAR-4 was > 100 µM (inactive) throughout.
`CO/N=C1\CC(NC(=O)CNC(=O)OC(C)(C)C)c2ccsc21` (stereo not drawn): the GI50 in the experiment with Malme-3M, in the experiment with UACC-62, in the experiment with NCI-H23, with DU-145, in the experiment on HCT-116 and in the experiment on CCRF-CEM was > 100 µM (inactive) in each case. For the same molecule, the GI50 in the experiment on CAKI-1 was > 100 µM (inactive); in the experiment with SF-539, > 100 µM (inactive); in the experiment on SR, > 100 µM (inactive); in the experiment with BT-549, > 100 µM (inactive); with HCT-15, greater than 100 µM; with IGROV-1, > 100 µM (inactive). The GI50 with RXF 393, in the experiment on LOX IMVI, with U-251, in the experiment on MOLT-4 and with OVCAR-4 was > 100 µM (inactive) throughout.
